3 compounds from ChEMBL document CHEMBL5653631, “A Potent and Selective ULK1 Inhibitor Suppresses Autophagy and Sensitizes Cancer Cells to Nutrient Stress” (iScience, 2018) can be followed below.

The species entered for test [1] is Homo sapiens. Put plainly: Inhibition of human recombinant CK1d at 40 nM in presence of ATP by radiometric assay relative to control.
Test [2] has as its target Mitogen-activated protein kinase 8 (Homo sapiens) (UniProt P45983). Put plainly: Inhibition of human recombinant JNK1 at 40 nM in presence of ATP by radiometric assay relative to control.
In test [3] the target is T1, Serine/threonine-protein kinase Nek2 (Homo sapiens) (UniProt P51955).
T1 sequence (whole entry): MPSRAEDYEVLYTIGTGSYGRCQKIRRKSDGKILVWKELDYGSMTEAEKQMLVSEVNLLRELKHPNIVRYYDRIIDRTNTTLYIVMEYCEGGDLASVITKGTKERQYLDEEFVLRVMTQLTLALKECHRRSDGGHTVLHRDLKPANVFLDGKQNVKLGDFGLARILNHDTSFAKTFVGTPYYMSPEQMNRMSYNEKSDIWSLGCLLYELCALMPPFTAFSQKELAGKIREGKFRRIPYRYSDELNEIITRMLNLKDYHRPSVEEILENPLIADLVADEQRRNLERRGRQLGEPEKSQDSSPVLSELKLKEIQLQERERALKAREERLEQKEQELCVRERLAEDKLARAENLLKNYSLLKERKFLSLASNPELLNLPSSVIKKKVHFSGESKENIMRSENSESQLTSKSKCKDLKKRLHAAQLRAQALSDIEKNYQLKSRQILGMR
Put plainly: Inhibition of human recombinant NEK2 at 40 nM in presence of ATP by radiometric assay relative to control.

Test [4] has as its target Serine/threonine-protein kinase 33 (Homo sapiens) (UniProt Q9BYT3). Put plainly: Inhibition of human recombinant STK33 at 40 nM in presence of ATP by radiometric assay relative to control.
The species named for test [5] is Homo sapiens. Put plainly: Inhibition of human recombinant CK1d at 500 nM in presence of ATP by radiometric assay relative to control.
The target in test [6] is Leucine-rich repeat serine/threonine-protein kinase 2 (Homo sapiens) (UniProt Q5S007). Put plainly: Inhibition of human recombinant LRRK2 at 500 nM in presence of ATP by radiometric assay relative to control.
Test [7] addresses T2, Mitogen-activated protein kinase kinase kinase kinase 2 (Homo sapiens) (UniProt Q12851).
T2 sequence (whole entry): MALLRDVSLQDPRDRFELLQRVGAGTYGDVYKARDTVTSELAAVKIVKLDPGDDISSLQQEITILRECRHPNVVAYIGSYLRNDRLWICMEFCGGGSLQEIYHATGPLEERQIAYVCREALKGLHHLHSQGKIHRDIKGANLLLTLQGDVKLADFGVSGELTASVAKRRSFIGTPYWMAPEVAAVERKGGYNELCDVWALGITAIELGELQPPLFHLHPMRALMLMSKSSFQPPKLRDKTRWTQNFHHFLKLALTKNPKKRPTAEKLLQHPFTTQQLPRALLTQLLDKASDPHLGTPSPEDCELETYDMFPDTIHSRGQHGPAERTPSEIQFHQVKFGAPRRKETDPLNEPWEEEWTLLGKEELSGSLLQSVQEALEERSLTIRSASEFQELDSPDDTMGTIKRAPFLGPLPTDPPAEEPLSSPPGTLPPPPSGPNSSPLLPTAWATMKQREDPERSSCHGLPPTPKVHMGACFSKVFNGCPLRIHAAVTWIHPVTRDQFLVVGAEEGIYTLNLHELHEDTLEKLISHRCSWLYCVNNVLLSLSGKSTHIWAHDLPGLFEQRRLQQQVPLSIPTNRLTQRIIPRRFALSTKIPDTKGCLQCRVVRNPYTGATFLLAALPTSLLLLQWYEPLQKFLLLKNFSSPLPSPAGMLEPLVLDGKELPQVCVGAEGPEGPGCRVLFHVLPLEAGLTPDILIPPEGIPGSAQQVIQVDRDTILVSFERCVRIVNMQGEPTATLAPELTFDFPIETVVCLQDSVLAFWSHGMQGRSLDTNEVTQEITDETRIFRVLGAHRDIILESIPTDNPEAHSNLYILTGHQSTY
Put plainly: Inhibition of human recombinant GCK at 500 nM related to control ULK1.

For test [8], the target named is T3, Muscle, skeletal receptor tyrosine-protein kinase (Homo sapiens) (UniProt O15146).
T3 sequence (whole entry): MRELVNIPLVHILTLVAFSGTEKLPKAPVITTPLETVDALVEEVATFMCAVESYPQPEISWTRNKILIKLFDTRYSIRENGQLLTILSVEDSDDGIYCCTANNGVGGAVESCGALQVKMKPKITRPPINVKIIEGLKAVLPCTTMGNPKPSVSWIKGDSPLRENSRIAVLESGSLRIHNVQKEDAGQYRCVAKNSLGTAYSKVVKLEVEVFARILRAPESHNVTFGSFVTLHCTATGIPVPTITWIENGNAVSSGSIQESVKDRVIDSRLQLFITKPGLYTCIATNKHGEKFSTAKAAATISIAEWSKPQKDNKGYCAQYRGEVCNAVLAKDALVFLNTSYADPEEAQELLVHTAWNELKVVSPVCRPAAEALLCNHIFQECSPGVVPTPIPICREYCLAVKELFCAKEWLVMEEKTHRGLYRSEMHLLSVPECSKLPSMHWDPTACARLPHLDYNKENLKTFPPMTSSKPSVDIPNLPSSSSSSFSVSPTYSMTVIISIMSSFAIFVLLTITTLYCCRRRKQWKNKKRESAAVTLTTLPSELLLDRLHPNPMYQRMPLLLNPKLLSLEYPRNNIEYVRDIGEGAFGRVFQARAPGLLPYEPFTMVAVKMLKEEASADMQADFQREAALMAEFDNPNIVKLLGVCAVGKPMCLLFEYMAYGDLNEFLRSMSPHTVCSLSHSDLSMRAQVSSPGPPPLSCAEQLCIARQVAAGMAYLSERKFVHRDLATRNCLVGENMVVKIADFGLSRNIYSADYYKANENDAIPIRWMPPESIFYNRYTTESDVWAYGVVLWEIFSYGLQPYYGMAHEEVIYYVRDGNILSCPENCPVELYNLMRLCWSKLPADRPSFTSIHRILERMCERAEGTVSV
Put plainly: Inhibition of human recombinant MUSK at 500 nM related to control ULK1.

The target in test [9] is Proto-oncogene tyrosine-protein kinase Src (Homo sapiens) (UniProt P12931). Put plainly: Inhibition of human recombinant SRC at 500 nM related to control ULK1.
Test [10] addresses Serine/threonine-protein kinase SIK1 (Homo sapiens) (UniProt P57059). Put plainly: Inhibition of human recombinant SIK at 15 nM in presence of ATP by radiometric assay relative to control.
For test [11], the target named is Serine/threonine-protein kinase N1 (Homo sapiens) (UniProt Q16512). Put plainly: Inhibition of human recombinant PKN1 at 15 nM related to control ULK1.
The target of test [12] is Macrophage-stimulating protein receptor (Homo sapiens) (UniProt Q04912). Put plainly: Inhibition of human recombinant RON at 15 nM related to control ULK1.
The target of test [13] is Serine/threonine-protein kinase 25 (Homo sapiens) (UniProt O00506). Put plainly: Inhibition of human recombinant YSK1 at 15 nM related to control ULK1.

Molecules are shown by their SMILES.

Sequence of Serine/threonine-protein kinase 33 (Homo sapiens) (Q9BYT3 whole entry, looked up): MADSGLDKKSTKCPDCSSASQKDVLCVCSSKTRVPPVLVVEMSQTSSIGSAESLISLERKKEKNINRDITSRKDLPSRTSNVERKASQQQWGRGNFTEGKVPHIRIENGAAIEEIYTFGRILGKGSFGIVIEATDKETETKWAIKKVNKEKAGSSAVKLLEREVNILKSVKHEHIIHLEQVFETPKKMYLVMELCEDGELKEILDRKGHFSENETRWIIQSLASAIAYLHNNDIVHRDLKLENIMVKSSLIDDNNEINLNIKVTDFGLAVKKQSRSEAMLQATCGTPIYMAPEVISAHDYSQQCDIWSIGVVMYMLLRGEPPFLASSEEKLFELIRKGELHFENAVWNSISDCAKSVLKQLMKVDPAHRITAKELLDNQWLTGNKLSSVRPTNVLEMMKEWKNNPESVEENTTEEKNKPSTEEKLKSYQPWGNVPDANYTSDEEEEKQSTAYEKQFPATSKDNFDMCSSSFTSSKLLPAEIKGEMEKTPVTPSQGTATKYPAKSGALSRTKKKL
Sequence of Serine/threonine-protein kinase 25 (Homo sapiens) (O00506 whole entry, looked up): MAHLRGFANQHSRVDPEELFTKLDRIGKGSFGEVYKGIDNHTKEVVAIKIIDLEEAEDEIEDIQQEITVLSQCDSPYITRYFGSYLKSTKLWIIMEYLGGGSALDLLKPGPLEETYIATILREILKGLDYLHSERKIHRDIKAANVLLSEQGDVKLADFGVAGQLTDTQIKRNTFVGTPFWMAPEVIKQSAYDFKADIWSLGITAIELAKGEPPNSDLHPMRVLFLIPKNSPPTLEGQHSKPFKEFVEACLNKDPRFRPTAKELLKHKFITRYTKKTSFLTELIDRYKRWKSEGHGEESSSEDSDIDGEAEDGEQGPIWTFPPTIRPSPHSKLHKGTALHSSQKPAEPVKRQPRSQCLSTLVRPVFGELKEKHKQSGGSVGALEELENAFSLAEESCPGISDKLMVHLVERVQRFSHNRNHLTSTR
Sequence of Macrophage-stimulating protein receptor (Homo sapiens) (Q04912 25-304 limits assumed): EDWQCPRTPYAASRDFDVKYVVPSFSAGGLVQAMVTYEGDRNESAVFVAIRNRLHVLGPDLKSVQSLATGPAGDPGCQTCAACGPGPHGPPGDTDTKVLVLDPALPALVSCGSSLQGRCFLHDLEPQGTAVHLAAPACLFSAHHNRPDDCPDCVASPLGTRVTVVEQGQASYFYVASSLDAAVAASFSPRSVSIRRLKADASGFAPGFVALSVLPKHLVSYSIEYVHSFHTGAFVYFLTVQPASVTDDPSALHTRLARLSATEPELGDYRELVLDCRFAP
Sequence of Macrophage-stimulating protein receptor (Homo sapiens) (Q04912 310-1400 limits assumed): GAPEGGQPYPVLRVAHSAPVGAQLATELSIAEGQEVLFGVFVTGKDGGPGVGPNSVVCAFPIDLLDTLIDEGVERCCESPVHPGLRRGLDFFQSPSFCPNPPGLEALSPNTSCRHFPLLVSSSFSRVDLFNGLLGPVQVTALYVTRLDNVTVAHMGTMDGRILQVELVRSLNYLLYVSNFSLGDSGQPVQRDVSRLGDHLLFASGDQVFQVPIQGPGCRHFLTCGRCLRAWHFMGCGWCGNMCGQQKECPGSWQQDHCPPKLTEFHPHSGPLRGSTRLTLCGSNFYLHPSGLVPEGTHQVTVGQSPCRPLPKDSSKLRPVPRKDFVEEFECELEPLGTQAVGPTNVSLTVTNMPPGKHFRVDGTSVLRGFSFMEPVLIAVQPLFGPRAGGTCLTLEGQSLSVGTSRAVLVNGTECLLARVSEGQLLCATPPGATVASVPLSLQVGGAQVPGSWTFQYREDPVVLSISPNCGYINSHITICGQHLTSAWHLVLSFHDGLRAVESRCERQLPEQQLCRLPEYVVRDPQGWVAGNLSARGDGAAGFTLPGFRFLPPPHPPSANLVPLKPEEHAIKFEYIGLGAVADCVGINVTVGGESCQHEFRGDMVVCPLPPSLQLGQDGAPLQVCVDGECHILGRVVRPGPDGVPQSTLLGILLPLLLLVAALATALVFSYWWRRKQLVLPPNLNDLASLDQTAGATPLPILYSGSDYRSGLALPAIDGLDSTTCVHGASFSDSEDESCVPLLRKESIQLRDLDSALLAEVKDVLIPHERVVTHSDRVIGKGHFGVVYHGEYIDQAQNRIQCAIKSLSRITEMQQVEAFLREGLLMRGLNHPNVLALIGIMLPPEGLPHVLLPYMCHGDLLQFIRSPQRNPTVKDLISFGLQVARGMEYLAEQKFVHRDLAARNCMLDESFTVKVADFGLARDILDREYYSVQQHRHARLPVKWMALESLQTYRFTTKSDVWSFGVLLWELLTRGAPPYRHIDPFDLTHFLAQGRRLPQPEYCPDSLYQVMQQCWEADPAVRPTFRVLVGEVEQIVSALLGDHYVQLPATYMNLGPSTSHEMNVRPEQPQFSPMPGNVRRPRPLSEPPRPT
Sequence of Serine/threonine-protein kinase SIK1 (Homo sapiens) (P57059 whole entry): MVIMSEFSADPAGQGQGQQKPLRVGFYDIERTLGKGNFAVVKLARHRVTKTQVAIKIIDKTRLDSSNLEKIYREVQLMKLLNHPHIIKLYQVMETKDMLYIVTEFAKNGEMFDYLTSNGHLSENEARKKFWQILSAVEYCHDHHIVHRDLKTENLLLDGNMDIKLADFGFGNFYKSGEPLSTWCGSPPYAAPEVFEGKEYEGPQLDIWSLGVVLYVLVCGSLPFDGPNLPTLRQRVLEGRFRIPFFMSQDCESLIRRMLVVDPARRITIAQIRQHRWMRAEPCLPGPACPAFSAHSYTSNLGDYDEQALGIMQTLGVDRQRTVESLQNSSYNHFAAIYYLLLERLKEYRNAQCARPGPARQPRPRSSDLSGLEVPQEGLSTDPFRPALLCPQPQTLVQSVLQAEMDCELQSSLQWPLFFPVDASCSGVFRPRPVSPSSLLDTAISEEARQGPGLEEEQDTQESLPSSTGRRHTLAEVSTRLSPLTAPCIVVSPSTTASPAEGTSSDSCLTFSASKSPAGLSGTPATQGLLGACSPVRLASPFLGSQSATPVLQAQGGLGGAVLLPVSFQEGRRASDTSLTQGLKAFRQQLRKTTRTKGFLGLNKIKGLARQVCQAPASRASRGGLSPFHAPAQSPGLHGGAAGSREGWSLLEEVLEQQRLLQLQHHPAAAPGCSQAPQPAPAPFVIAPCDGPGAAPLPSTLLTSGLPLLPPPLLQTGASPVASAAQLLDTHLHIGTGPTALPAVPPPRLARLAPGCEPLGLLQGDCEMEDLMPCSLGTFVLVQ
Sequence of Mitogen-activated protein kinase 8 (Homo sapiens) (P45983 whole entry): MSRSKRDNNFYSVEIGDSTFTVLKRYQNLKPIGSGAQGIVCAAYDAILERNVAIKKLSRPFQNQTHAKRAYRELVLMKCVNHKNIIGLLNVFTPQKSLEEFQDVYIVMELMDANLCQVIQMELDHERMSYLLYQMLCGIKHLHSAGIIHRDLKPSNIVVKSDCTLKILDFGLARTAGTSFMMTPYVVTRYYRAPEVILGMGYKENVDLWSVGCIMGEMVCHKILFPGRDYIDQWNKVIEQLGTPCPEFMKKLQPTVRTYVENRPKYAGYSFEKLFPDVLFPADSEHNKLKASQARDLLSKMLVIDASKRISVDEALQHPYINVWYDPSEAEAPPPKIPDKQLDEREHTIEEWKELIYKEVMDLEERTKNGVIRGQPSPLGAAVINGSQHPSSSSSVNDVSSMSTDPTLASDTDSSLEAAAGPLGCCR
Sequence of Serine/threonine-protein kinase N1 (Homo sapiens) (Q16512 2-942 limits assumed): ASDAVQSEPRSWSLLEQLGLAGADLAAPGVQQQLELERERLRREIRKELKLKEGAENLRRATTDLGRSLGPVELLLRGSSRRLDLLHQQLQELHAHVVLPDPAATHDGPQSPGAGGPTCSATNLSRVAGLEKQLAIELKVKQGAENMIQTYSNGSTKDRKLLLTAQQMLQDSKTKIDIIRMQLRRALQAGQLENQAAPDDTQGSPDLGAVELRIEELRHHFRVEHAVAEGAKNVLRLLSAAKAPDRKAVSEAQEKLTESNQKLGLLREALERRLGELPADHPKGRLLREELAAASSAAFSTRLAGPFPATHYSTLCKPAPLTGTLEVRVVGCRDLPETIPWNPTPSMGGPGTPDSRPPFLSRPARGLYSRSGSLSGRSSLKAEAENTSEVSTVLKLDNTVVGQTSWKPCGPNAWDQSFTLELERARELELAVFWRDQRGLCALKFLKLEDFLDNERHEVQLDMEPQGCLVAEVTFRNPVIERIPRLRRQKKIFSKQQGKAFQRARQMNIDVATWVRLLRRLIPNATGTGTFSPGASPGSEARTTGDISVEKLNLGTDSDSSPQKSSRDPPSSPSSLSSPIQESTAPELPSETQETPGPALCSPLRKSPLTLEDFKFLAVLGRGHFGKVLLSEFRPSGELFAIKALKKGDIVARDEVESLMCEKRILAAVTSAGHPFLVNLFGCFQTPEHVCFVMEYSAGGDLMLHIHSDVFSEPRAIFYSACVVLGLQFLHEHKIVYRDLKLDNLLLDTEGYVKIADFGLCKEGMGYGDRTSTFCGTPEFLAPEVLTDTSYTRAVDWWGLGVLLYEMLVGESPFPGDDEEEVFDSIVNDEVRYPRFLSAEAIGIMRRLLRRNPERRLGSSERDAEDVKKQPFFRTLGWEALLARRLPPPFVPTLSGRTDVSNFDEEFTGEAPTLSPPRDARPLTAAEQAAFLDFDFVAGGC
Sequence of Proto-oncogene tyrosine-protein kinase Src (Homo sapiens) (P12931 2-536 limits assumed): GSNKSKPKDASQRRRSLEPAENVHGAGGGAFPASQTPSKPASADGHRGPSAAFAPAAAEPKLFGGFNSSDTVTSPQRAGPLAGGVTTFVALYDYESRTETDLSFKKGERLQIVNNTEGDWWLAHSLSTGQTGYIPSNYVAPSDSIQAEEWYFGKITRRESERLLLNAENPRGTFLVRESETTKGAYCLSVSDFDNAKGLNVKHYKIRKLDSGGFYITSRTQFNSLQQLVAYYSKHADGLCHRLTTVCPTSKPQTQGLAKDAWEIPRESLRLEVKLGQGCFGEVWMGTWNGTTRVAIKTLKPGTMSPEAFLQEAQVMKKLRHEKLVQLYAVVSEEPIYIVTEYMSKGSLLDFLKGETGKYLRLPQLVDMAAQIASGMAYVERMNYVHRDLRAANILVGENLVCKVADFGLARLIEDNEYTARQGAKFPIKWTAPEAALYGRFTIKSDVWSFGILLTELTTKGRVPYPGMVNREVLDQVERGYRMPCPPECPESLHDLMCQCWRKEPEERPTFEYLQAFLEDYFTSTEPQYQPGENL

By inhibition is commonly meant the drop in the measured response relative to a control, in per cent. Consider `O=C(N[C@@H](C1CC1)C(F)(F)F)c1cc(-c2cnn3cc(-c4ccc(F)cc4)cnc23)cs1`, for which the inhibition in the test listed under Homo sapiens [1] turned out to be 3%; in [2], 0%; in [3], 0%; in test [4], 19%.

As to `CNC(=O)c1ccccc1Oc1nc(Nc2cc(OC)c(OC)c(OC)c2)ncc1Br`, the figures for the inhibition (in the test listed under Homo sapiens [5]; in test [6]) were 10% and 35%, respectively. The figures for the fold change (FC) in test [7], in test [8] and in test [9] were 0.45, 0.46 and 0.26, respectively.

Consider `CC(C)[C@H](NC(=O)c1cc(-c2cnn3cc(-c4ccc(OCCN5CCCCC5)cc4)cnc23)cs1)C(F)(F)F`, for which the inhibition in [10] was 74%. The fold change (FC) in test [11] is 0; in test [12], 0.02; in test [13] it was 0.
